From patent publication US20250115598A1 (Anaxis Pharma Pty Ltd, priority 2021, published 2025)

Columns and labels:
endogenous MLKL in MDF = endogenous MLKL in MDF (Mus musculus (Mouse), UniProt Q9D2Y4); assay: Degradation assay: endogenous MLKL in MDF (western blot); conditions: MDF cells, 24 h incubation with compound, MLKL adjusted for loading with GAPDH, normalized to DMSO only control, read-out: Degradation of endogenous MLKL in MDF (DC50 cell-based assay)
Procedure: Degradation Assay: Screening Compounds Procedure to Evaluate the Activity of Compounds in Degrading Endogenous MLKL in Human and Mouse Cell
The mouse dermal fibroblast (MDF) cell line was seeded the day before the experiment in a 24-well plate at a cell density of […] per well in a volume of 0.5 mL per well and left to attach overnight. The human monocyte cell line (U937) was seeded on the day of the experiment in a 24-well plate at a cell density of […] per well in a volume of 0.5 mL per well.
The compound was diluted in DMSO with a starting concentration of 10 mM and titrated stepwise with a dilution of 1:5. 0.5 μL of the compound dilution was added to the appropriate well to achieve a final concentration of 10; 2; 0.4; 0.08 and 0.016 μM. A DMSO only well was included as control.
The cells were incubated for 24 h in the presence of the compound at 37° C. and 10% CO2.
After the 24 h incubation period, the medium was removed and cells washed with 0.5 mL PBS. The cells were then lysed directly in 60 μL of 1×SDS gel loading buffer.
The cell lysate was heat-denatured at […] for 10 min. 10 μL of lysate per well were run on 18-well 4-15% Criterion TGX stain free gels (BIO-RAD). The proteins were then transferred onto nitrocellulose membrane with a wet transfer protocol in the Criterion Blotter (BIO-RAD).
Membranes were blocked with 5% skim milk in TBST. Primary antibody against MLKL (clone 3H1, MABC604 Merck) was used at 1:2000 dilution in TBST with 1% BSA and left shaking over night at 4° C. After washes with TBST, the membranes were incubated with goat anti-rat IgG HRP-conjugated antibody (Southern Biotech) in 1% skim milk TBST at 1:10000 dilution for 1 h at room temperature. After TBST washes the bands were imaged on the ChemiDoc MP Imaging System (BIO-RAD) with Immobilion Western Chemiluminescent HRP Substrate Forte (Millipore). The loading control GAPDH was probed for with rabbit anti-GAPDH (CST 14C10) at 1:2000 dilution in 1% BSA TBST over night at 4° C. TBST washes were followed by incubation with goat anti-rabbit IgG HRP-conjugated antibody (Southern Biotech) in 1% skim milk TBST at 1:10000 dilution for 1 h at room temperature followed by TBST washes. The signal was detected as described above.
The band intensity was measured in the ImageLab Software (BIO-RAD) and the MLKL values adjusted for loading with GAPDH. The percentage of degradation was calculated by normalizing the compound treated values to the DMSO only control.

human MLKL (full length) = human MLKL (full length) (Homo sapiens (Human), UniProt Q8NB16); assay: KINOMEscan binding assay, human MLKL (full length); conditions: hMLKL, Table 25; read-out: MLKL (KD)
Sequence of human MLKL (full length) (Q8NB16 whole entry): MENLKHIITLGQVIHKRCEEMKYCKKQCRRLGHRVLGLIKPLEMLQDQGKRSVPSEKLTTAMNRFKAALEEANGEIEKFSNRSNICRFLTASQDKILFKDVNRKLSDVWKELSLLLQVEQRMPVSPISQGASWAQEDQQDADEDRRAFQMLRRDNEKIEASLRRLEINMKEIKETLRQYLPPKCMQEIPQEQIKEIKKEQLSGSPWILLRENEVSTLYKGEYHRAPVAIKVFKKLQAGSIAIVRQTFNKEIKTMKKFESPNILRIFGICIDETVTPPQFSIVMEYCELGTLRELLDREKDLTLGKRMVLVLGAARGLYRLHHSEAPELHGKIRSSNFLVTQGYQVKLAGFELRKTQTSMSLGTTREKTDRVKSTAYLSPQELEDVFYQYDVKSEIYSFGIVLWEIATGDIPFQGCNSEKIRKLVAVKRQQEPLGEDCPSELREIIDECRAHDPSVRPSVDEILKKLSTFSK
Outline: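 Tagged kinase + immobilized ligand beads + compound; eluted kinase quantified by qPCR. Kinase source: T7 phage lysate (BL21-derived E. coli, 32 °C) or HEK-293 with DNA tag. 11-pt 3-fold series, 1% DMSO, top 30,000 nM (most). Hill fit, slope −1 → Kd.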

Sequence of endogenous MLKL in MDF (Q9D2Y4 whole entry): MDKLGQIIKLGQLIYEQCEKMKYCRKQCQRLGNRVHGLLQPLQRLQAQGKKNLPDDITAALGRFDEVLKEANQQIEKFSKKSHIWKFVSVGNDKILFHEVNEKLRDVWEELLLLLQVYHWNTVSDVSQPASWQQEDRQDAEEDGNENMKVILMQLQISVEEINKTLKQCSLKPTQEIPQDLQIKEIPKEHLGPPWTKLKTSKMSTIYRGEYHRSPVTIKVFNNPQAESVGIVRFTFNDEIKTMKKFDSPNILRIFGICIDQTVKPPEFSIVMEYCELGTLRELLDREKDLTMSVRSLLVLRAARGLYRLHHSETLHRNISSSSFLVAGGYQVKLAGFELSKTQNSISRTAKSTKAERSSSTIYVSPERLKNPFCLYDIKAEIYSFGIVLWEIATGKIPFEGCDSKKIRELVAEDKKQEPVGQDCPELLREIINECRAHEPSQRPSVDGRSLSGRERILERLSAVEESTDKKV

Row | SMILES | DC50 (endogenous MLKL in MDF) [µM] | Kd (human MLKL (full length)) [µM]
1 | C[C@H](Oc1cc(-c2nn(C)c3c(-c4cnn(CCCCCCCOc5cccc6c5C(=O)N(C5CCC(=O)N(C)C5=O)C6=O)c4)cnc(N)c23)ccc1NS(=O)(=O)C(F)F)c1ccc(F)cc1 (stereo partly drawn) [Compound 1100, N-(4-{4-amino-1-methyl-7-[1-(7-{[2-(1-methyl-2,6-dioxopiperidin-3-yl)-1,3-dioxo-2,3-dihydro-1H-isoindol-4-yl]oxy}heptyl)-1H-pyrazol-4-yl]-1H-pyrazolo[4,3-c]pyridin-3-yl}-2-[(1S)-1-(4-fluorophenyl)ethoxy]phenyl)-1,1-difluoromethanesulfonamide] | < 1 | 
2 | C[C@H](Oc1cc(-c2nn(C)c3c(-c4cnn(C5CCN(CCc6cn(CCNc7cccc8c7C(=O)N(C7CCC(=O)NC7=O)C8=O)nn6)CC5)c4)cnc(N)c23)ccc1NS(=O)(=O)C(F)F)c1ccc(F)cc1 (some centres unmarked) [Compound 1135, N-(4-{4-amino-7-[1-(1-{2-[1-(2-{[2-(2,6-dioxopiperidin-3-yl)-1,3-dioxo-2,3-dihydro-1H-isoindol-4-yl]amino}ethyl)-1H-1,2,3-triazol-4-yl]ethyl}piperidin-4-yl)-1H-pyrazol-4-yl]-1-methyl-1H-pyrazolo[4,3-c]pyridin-3-yl}-2-[(1 S)-1-(4-fluorophenyl)ethoxy]phenyl)-1,1-difluoromethanesulfonamide] | 1 to 10 | 
3 | Cc1ncsc1-c1ccc(CNC(=O)[C@@H]2C[C@@H](O)CN2C(=O)[C@@H](NC(=O)CCCCCCCCC#Cc2cnc(N)c3c(-c4ccc(NS(=O)(=O)C(F)F)c(O[C@@H](C)c5ccc(F)cc5)c4)nn(C)c23)C(C)(C)C)cc1 [Compound 1028, (2S,4R)-1-[(2S)-2-(11-{4-amino-3-[4-(difluoromethanesulfonamido)-3-[(1S)-1-(4-fluorophenyl)ethoxy]phenyl]-1-methyl-1H-pyrazolo[4,3-c]pyridin-7-yl}undec-10-ynamido)-3,3-dimethylbutanoyl]-4-hydroxy-N-{[4-(4-methyl-1,3-thiazol-5-yl)phenyl]methyl}pyrrolidine-2-carboxamide] | 1 to 10 | 
4 | Cc1ncsc1-c1ccc(CNC(=O)[C@@H]2C[C@@H](O)CN2C(=O)[C@@H](NC(=O)C2(F)CC2)C(C)(C)C)c(OCCCCCCCCn2cc(-c3cnc(N)c4c(-c5ccc(NS(=O)(=O)C(F)F)c(O[C@@H](C)c6ccc(F)cc6)c5)nn(C)c34)cn2)c1 [Compound 1045, (2S,4R)-N-[(2-{[8-(4-{4-amino-3-[4-(difluoromethanesulfonamido)-3-[(1S)-1-(4-fluorophenyl)ethoxy]phenyl]-1-methyl-1H-pyrazolo[4,3-c]pyridin-7-yl}-1H-pyrazol-1-yl)octyl]oxy}-4-(4-methyl-1,3-thiazol-5-yl)phenyl)methyl]-1-[(2S)-2-[(1-fluorocyclopropyl)formamido]-3,3-dimethylbutanoyl]-4-hydroxypyrrolidine-2-carboxamide] | < 1 | 0.01 to 1
5 | Cc1ncsc1-c1ccc(CNC(=O)[C@@H]2C[C@@H](O)CN2C(=O)[C@@H](NC(=O)c2cccc(OCCn3cc(-c4cnc(N)c5c(-c6ccc(NS(=O)(=O)C(F)F)c(O[C@@H](C)c7ccc(F)cc7)c6)nn(C)c45)cn3)c2)C(C)(C)C)cc1 [Compound 1039, (2S,4R)-1-[(2S)-2-({3-[2-(4-{4-amino-3-[4-(difluoromethanesulfonamido)-3-[(1S)-1-(4-fluorophenyl)ethoxy]phenyl]-1-methyl-1H-pyrazolo[4,3-c]pyridin-7-yl}-1H-pyrazol-1-yl)ethoxy]phenyl}formamido)-3,3-dimethylbutanoyl]-4-hydroxy-N-{[4-(4-methyl-1,3-thiazol-5-yl)phenyl]methyl}pyrrolidine-2-carboxamide] | 1 to 10 | 0.01 to 1
6 | Cc1ncsc1-c1ccc(CNC(=O)[C@@H]2C[C@@H](O)CN2C(=O)[C@@H](NC(=O)CCCCCCC#Cc2cnc(N)c3c(-c4ccc(NS(=O)(=O)C(F)F)c(O[C@@H](C)c5ccc(F)cc5)c4)nn(C)c23)C(C)(C)C)cc1 [Compound 1027, (2S,4R)-1-[(2S)-2-(9-{4-amino-3-[4-(difluoromethanesulfonamido)-3-[(1S)-1-(4-fluorophenyl)ethoxy]phenyl]-1-methyl-1H-pyrazolo[4,3-c]pyridin-7-yl}non-8-ynamido)-3,3-dimethylbutanoyl]-4-hydroxy-N-{[4-(4-methyl-1,3-thiazol-5-yl)phenyl]methyl}pyrrolidine-2-carboxamide] | 1 to 10 | 
7 | C[C@H](Oc1cc(-c2nn(C)c3c(-c4cnn(C5CCN(C(=O)[C@]67C[C@](Nc8cccc9c8C(=O)N(C8CCC(=O)NC8=O)C9=O)(C6)C7)CC5)c4)cnc(N)c23)ccc1NS(=O)(=O)C(F)F)c1ccc(F)cc1 (stereo partly drawn) [Compound 1118, N-[4-(4-amino-7-{1-[1-(3-{[2-(2,6-dioxopiperidin-3-yl)-1,3-dioxo-2,3-dihydro-1H-isoindol-4-yl]amino}bicyclo[1.1.1]pentane-1-carbonyl)piperidin-4-yl]-1H-pyrazol-4-yl}-1-methyl-1H-pyrazolo[4,3-c]pyridin-3-yl)-2-[(1S)-1-(4-fluorophenyl)ethoxy]phenyl]-1,1-difluoromethanesulfonamide] | < 1 | 
8 | Cn1nc(-c2ccc(NS(=O)(=O)C(F)F)c(F)c2)c2c(N)ncc(-c3cnn(CCCCCCCOc4cccc5c4C(=O)N(C4CCC(=O)NC4=O)C5=O)c3)c21 (centres unmarked) [Compound 1060, N-(4-{4-amino-7-[1-(7-{[2-(2,6-dioxopiperidin-3-yl)-1,3-dioxo-2,3-dihydro-1H-isoindol-4-yl]oxy}heptyl)-1H-pyrazol-4-yl]-1-methyl-1H-pyrazolo[4,3-c]pyridin-3-yl}-2-fluorophenyl)-1,1-difluoromethanesulfonamide] | 1 to 10 | < 0.01
